Data set [1] deals with maximal electroshock seizures in mice. The experiment in a line: Maximal electroshock test (MES test) in mice. In kind it is in vivo, mouse. To be noted: 100 mg/kg. An excerpt: The MES test is a classical model to indicate efficacy for partial and generalized seizures in humans. The agents' mechanism of action is via their ability to prevent the spread of seizures. Some agents, however, that prevent seizure spread have the side effect of lowering seizure threshold. These agents therefore have both proconvulsive and anticonvulsive side effects.
In general terms: In the maximal electroshock model the usual endpoint is tonic extension of the hind limbs.

Data set [2] deals with MCA-occluded Wistar rats. How it is done:
(§1) Middle cerebral artery occlusion (MCAO) in the rat. […] Male Wistar rats (Olac England-Jerusalem) 300-400 g each were anesthetized with a solution of Equitesine administered i.p. at a dose of 3 mL/kg. Equitesine consists of 13.5 mL sodium pentothal solution (60 mg/mL), 3.5 g chloral hydrate, 1.75 g MgSO4, 33 mL propylene glycol, 8.3 mL absolute alcohol made up to 83 mL with distilled water. […] In order to expose the left middle cerebral artery, a cut was made in the temporal muscle. The tip of the coronoid process of mandible was excised as well and removed with a fine rongeur. Craniectomy was made with a dental drill at the junction between the median wall and the roof of the inferotemporal fossa. The dura matter was opened carefully using a 27 gauge needle. The MCA was permanently occluded by microbipolar coagulation at low power setting, beginning 2-3 mm medial to the olfactory tract between its cortical branch to the rhinal cortex and the laterate striate arteries.
After coagulation, the MCA was severed with microscissors and divided to ensure complete occlusion. Following this, the temporalis muscle was sutured and laid over the craniectomy site. The skin was closed with a running 3-0 silk suture. A shad craniectomy operation was performed on a parallel group of rats, but without cauterization of the MCA. […] The volume of brain tissue incurring damage following ischemia was determined. […]

Data set [3] has as its system MCA-occluded Wistar rats. How it is done: as §1
After coagulation, the MCA was severed with microscissors and divided to ensure complete occlusion. Following this, the temporalis muscle was sutured and laid over the craniectomy site. The skin was closed with a running 3-0 silk suture. A shad craniectomy operation was performed on a parallel group of rats, but without cauterization of the MCA. During the entire surgical operation (20-25 min) in either group, body temperature was maintained at 37 to 38° C. by means of a body-temperature regulator (Kyoristsu, Japan) consisting of a self-regulating heating pad connected to a rectal thermistor. […] The volume of brain tissue incurring damage following ischemia was determined.
1 mg/kg immediately after surgery.
0.5 mg/kg 2 hours after surgery
Then multislices T2-weighted images (3000/80) were acquired (5 contiguous slices, 3 mm thick).
The following MRI parameters were determined for each group of rats:
The use of contiguous slices allows the conversion-of area units into volume units by simply multiplying the area value by the slice thickness
The source holds these as a separate data set.

Data set [4] relates to neonatal rat cerebellum cell cultures. To be noted: for Percent Protection: after subtraction of solvent effect. How it is done: Procedures: cultures of mechanically dissociated neonatal rat cerebellum. […] The cerebella are then dissociated after 20-25 passages through a sterile 13 gauge, 10 cm long stainless steel needle attached to a 5 ml syringe with an inserted 45 μm pore size nylon sieve. The dissociated cells are centrifuged at 200 g for 5 minutes, the supernatant discarded and the cells resuspended in enriched medium. The cell viability is determined by the trypan blue exclusion test. […] After 4 days in culture, the media are replaced with media containing the desired test compounds. Experiments are done in duplicate and repeated 2 or 3 times. […] Nerve cell survival is evaluated by phase contrast microscopy and trypan blue staining after 24 h.
Values, expressed as the percent of untreated controls, represent the average of 2 experiments run in duplicate for culture experiments, and the mean±SEM of 4 animals for ischemia. The percent protection value is the effect of the test compound after subtraction of the solvent effect.

Data set [5] has as its system crush-injured rat optic nerve. As to conditions: rats, 2 mg/kg i.p. immediately after optic nerve crush. An excerpt:
At short terms, metabolic measurements were monitored in terms of the mitochondrial NADH/NAD ratio, which depends on the activity of the electron transport system, and thus indicate levels of energy production.
Monitoring of the intramitochondrial NADH redox state is based on the fact that NADH, unlike the oxidized form NAD^+, fluoresces when illuminated at […]. A flexible Y-shaped bundle of optic fibers (light guide) was used to transmit the light to and from the optic nerve. […] Changes in the reflected light were correlated with changes in tissue absorption caused by hemodynamic effects and with movements of the optic nerve secondary to alterations in arterial blood pressure and nerve volume.
Animal utilization was in accord with the ARVO Resolution on the use of animals in research. […] With the animal's head held in place by a head holder, a lateral canthotomy was performed under a binocular operating microscope and the conjuctiva was incised lateral to the cornea.

Data set [6] deals with haloperidol-induced catalepsy in mice. The experiment in a line: Reversal of haloperidol-induced catalepsy in mice. In kind it is in vivo, mouse. To be noted: peak effect at 7.5-10 mg/kg, 3 hours after haloperidol. The procedure: All drugs were administered i.p. in a volume of 0.2 mL. Two hours later, haloperidol was injected s.c. at a dose of 6 mg/kg in a volume of 0.1-0.2 mL. Motor coordination tests were made at 3 hours after giving haloperidol, that is, 5 hours after administering the presumed protective drugs.
Motor coordination tests and rigidity were quantified according to three different parameters: (a) ability to walk the length of a horizontal rod, 80 cm-long; (b) ability to climb down, face down, a vertical rod, 80 cm-long; (c) duration of immobility in an unnatural sitting posture whereby the abdomen of the mouse is pressed against a “wall.” Full performance as in haloperidol-untreated mice is given the score of 4 in each test, or a total of 12 in all tests. Poor performance is given a score from 1 to 3.

For data set [7], the system named is Metrazol seizure threshold in mice. Nature of the data set: Timed Intravenous Infusion of Metrazol test. In kind it is in vivo, mouse. To be noted: 141 mg/kg. The procedure:
Timed Intravenous Infusion of Metrazol Test. This test measures the minimal seizure threshold of each animal. Metrazol is infused at 0.185 mg/ml into the tail veins of mice.

In data set [8] the test system is amphetamine-induced stereotype behavior in senescent rats. The experiment in a line: Amphetamine-induced stereotype behavior in senescent rats. The data set is classed as in vivo, rat. As to conditions: control senescent rats, 0.5 mg/kg/day in drinking water, amphetamine 0.5 mg/kg s.c. How it is done:
45 minutes later, lateral head movements were counted.

In data set [9] the test system is anoxia-induced hyperactive syndrome in juvenile rats. The experiment in a line: Anoxia-induced hyperactive syndrome in juvenile rats. The data set is classed as in vivo, rat. As to conditions: 0.5 mg/kg/day to nursing mother.
Method: Anoxia was performed on rat pups on the first post-natal day. They were placed in a glass chamber and exposed to 100% nitrogen for 25 minutes. They were resuscitated by intermittent massage softly applied to the chest and then returned to their respective mothers. Control rats received the same treatment but with air instead of nitrogen.
Locomotion was measured in 6 fully computerized cages (28×28 cm) by recording the number of crossings over a given period of time. Crossings of grid infrared beams at 4-cm intervals initiated electrical impulses which fed a counter. Recordings of motor activity were made at the ages of 15 and 20 days, over a period of 15 minutes.
The subject of data set [10] is MPTP-induced striatal DA and DOPAC depletions in mice. Nature of the data set: Suppression of MPTP-induced dopaminergic toxicity (striatal DA and DOPAC). The data set is classed as in vivo, mouse. To be noted: PAI […] i.p., deprenyl 5 mg/kg i.p., 5 days.
In data set [11] the test system is passive avoidance response in young rats. The experiment in a line: Passive avoidance test in young rats (memory). In kind it is in vivo, rat. As to conditions: Protocol B (0.5 mg/kg/day), anoxia-lesioned rats. An excerpt:
The effect of R(+)-PAI and S(−)-PAI on the improvement or restoration of memory was investigated in the passive avoidance test. If the drug is effective, it increases the latency of response to enter a dark compartment or chamber where an electroshock has been experienced earlier by the rat being tested. The latency of the maximal response is 300 seconds.

Setting [12] is: pretreatment 1 h before MPTP 30 mg/kg s.c.

We go through three compounds from patent US20060094783A1 (Tava Pharmaceutical Industries, Ltd., priority 1990, published 2006).

The structures appear in SMILES notation. Values joined by “and” are separate entries in the source; they are usually repeats but may differ in a detail not shown here. Identical values can stand only once. Counter-ions that a name gives are not always drawn. Like-named read-outs stand apart in the source and are kept apart here.

For the compound `C#CCN[C@@H]1CCc2ccccc21.CS(=O)(=O)O` [(R)-PAI Mesylate, R-(+)-N-propargyl-1-aminoindan mesylate], the mice protected result in [1] is “one out of three”. In addition, the “Neurological Score, MEAN + SD” value in the data set on MCA-occluded Wistar rats [2] (n=5, 24 hrs after MCA-Occlusion, scale 0-13) was determined as 2.78 ± 1.3. Further, the “reduction of neurological score” value in the data set with MCA-occluded Wistar rats [2] (n=5 vs 6 untreated MCAO rats, mesylate) is 54% and 53.7%. The “Infarct size, MEAN ± SD” value in the data set with MCA-occluded Wistar rats [3] (Table 21, n=9, MRI T2 scan 48 h after MCA-O, 1.0, 0.5, 1.0 mg/kg ip at 0, 2, 24 hrs) worked out at 163.5 ± 43.9 mm^3. In addition, the “reduction of infarct size” value in the data set on MCA-occluded Wistar rats [3] (Table 21, n=9 vs 10 untreated) is “[R](+)PAI Mesylate reduces infarct size by 40% significantly”; with MCA-occluded Wistar rats [3] (Table 22, n=5 vs 6 untreated MCAO rats, mesylate) it was 36% and 36.3%. Moreover, the “Infarct size, MEAN + SD” value in the data set on MCA-occluded Wistar rats [3] (Table 22, n=5, MRI 48 hrs after MCA-Occlusion) was determined as 172 ± 28 mm^3. In the data set with MCA-occluded Wistar rats [3] (n=9 vs 10 untreated), the “infarct size as % of that in untreated animals” value was “about 60%”. In addition, the “Surviving Cells (percent of untreated controls)” value turned out to be 12 in data set [4] (0.01 μM + NMDA), 22 in data set [4] (1.00 μM + NMDA) and 37 in data set [4] (10.00 μM + NMDA). The “Percent Protection” value stood at 2 in [4] (0.01 μM + NMDA) and 12 in data set [4] (1.00 μM + NMDA). For the same compound, the “effect on injury-induced reduction in energy production (NADH response to anoxia)” value in [5] is “blocked the injury-induced reduction in energy production”. Besides, in [6], the “peak activity score as % of saline control” value came to 94%.
For the compound `C#CCN[C@H]1CCc2ccccc21` [(S)-PAI Mesylate], in data set [1], the mice protected result is reported as “three out of three”. In [7], the “effect on time to first focal seizure and onset of clonus (proconvulsive activity)” value is recorded as “reduces the time”.
Consider `C#CCN[C@H]1CCc2ccccc21` [S(−)PAI], for which the “Stereotype Behavior Rating (lateral head movements in 1 minute)” value in data set [8] is 94 ± 18. In [9] (15-day old anoxia-lesioned rats), the “numbers of crossings of infrared beam grid over 15 minutes” value is 334 ± 196(5). Besides, in data set [9] (20-day old anoxia-lesioned rats), the “numbers of crossings of infrared beam grid over 15 minutes” value is given as 778 ± 232(6). In addition, in data set [10] (drug alone), the “striatal DA” value turned out to be 174.0 ± 4.8 ng/mg protein and the “striatal DOPAC” value was 7.5 ± 0.2 ng/mg protein. In [10] (setting [12]), the “striatal DA” value was determined as 53.4 ± 6.9 ng/mg protein and the “striatal DOPAC” value is 7.0 ± 0.6 ng/mg protein. For the same compound, in data set [11], the “latency After Electroshock” value turned out to be 112 ± 112 s and the “latency Before Electroshock” value is 48 ± 19 s.
